# Measured values published in the supplement of paper PMC10307832.
# Columns and labels:
# Test in all cases: relative viability (nuclei count vs DMSO), 5 days (fraction); higher = more cells survive
# NCI-H23 = system: NCI-H23
# Method in brief: (§1)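 Values are medians from duplicate plates. Each reflects relative viability, defined as the nuclei count of treated wells over that of vehicle wells. Lung cancer cell lines in 1536-well plates were pin-tool dosed one day after seeding with one drug alone or with a fixed anchor-drug dose plus five library-drug doses (not always all listed) in √10 steps, then fixed, stained and imaged at 4× after 5 days.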
# UMC-11 = system: UMC-11
# Method in brief: as §1
# NCI-H2347 = system: NCI-H2347
# Method in brief: as §1
# NCI-H3122 = system: NCI-H3122
# Method in brief: as §1
# LXF-289 = system: LXF-289
# Method in brief: as §1
# NCI-H2023 = system: NCI-H2023
# Method in brief: as §1
# A-427 = system: A-427
# Method in brief: as §1
# PC-14 = system: PC-14
# Method in brief: as §1
# NCI-H460 = system: NCI-H460
# Method in brief: as §1
# NCI-H1437 = system: NCI-H1437
# Method in brief: as §1
# ABC-1 = system: ABC-1
# Method in brief: as §1
smiles,measurement,setting,value
COCC1(CO)C(=O)C2CCN1CC2 (centres undefined) [PRIMA-1MET] + O=C(CCCCCCC(=O)Nc1ccccc1)NO [Vorinostat] (partner 1 µM),relative viability,NCI-H23; first compound 0.2 µM,0.72
same,relative viability,NCI-H23; first compound 0.6325 µM,0.48
same,relative viability,NCI-H23; first compound 2 µM,0.482
same,relative viability,NCI-H23; first compound 6.325 µM,0.569
same,relative viability,NCI-H23; first compound 20 µM,0.0886
same,relative viability,UMC-11; first compound 0.2 µM,0.422
same,relative viability,UMC-11; first compound 0.6325 µM,0.358
same,relative viability,UMC-11; first compound 2 µM,0.385
same,relative viability,UMC-11; first compound 6.325 µM,0.477
same,relative viability,UMC-11; first compound 20 µM,0.479
same,relative viability,NCI-H2347; first compound 0.2 µM,0.574
same,relative viability,NCI-H2347; first compound 0.6325 µM,0.656
same,relative viability,NCI-H2347; first compound 2 µM,0.348
same,relative viability,NCI-H2347; first compound 6.325 µM,0.551
same,relative viability,NCI-H2347; first compound 20 µM,0.327
same,relative viability,NCI-H3122; first compound 0.2 µM,1.01
same,relative viability,NCI-H3122; first compound 0.6325 µM,0.861
same,relative viability,NCI-H3122; first compound 2 µM,0.686
same,relative viability,NCI-H3122; first compound 6.325 µM,1.07
same,relative viability,NCI-H3122; first compound 20 µM,0.861
same,relative viability,LXF-289; first compound 0.2 µM,0.864
same,relative viability,LXF-289; first compound 0.6325 µM,0.628
same,relative viability,LXF-289; first compound 2 µM,0.79
same,relative viability,LXF-289; first compound 6.325 µM,0.796
same,relative viability,LXF-289; first compound 20 µM,0.745
same,relative viability,NCI-H2023; first compound 0.2 µM,1.06
same,relative viability,NCI-H2023; first compound 0.6325 µM,0.474
same,relative viability,NCI-H2023; first compound 2 µM,0.442
same,relative viability,NCI-H2023; first compound 6.325 µM,0.734
same,relative viability,NCI-H2023; first compound 20 µM,0.254
same,relative viability,A-427; first compound 0.2 µM,1.1
same,relative viability,A-427; first compound 0.6325 µM,0.869
same,relative viability,A-427; first compound 2 µM,0.856
same,relative viability,A-427; first compound 6.325 µM,0.949
same,relative viability,A-427; first compound 20 µM,0.865
same,relative viability,PC-14; first compound 0.2 µM,0.722
same,relative viability,PC-14; first compound 0.6325 µM,0.755
same,relative viability,PC-14; first compound 2 µM,0.728
same,relative viability,PC-14; first compound 6.325 µM,0.777
same,relative viability,PC-14; first compound 20 µM,0.019
same,relative viability,NCI-H460; first compound 0.2 µM,0.949
same,relative viability,NCI-H460; first compound 0.6325 µM,0.588
same,relative viability,NCI-H460; first compound 2 µM,0.686
same,relative viability,NCI-H460; first compound 6.325 µM,0.613
same,relative viability,NCI-H460; first compound 20 µM,0.0194
same,relative viability,NCI-H1437; first compound 0.2 µM,0.951
same,relative viability,NCI-H1437; first compound 0.6325 µM,0.685
same,relative viability,NCI-H1437; first compound 2 µM,0.792
same,relative viability,NCI-H1437; first compound 6.325 µM,0.939
same,relative viability,NCI-H1437; first compound 20 µM,0.776
same,relative viability,ABC-1; first compound 0.2 µM,1.01
same,relative viability,ABC-1; first compound 2 µM,1.09
same,relative viability,ABC-1; first compound 6.325 µM,1.11
same,relative viability,ABC-1; first compound 20 µM,0.262
